# PMC7066191, “Exploiting loss of heterozygosity for allele-selective colorectal cancer chemotherapy” (Nature Communications, 2020)
# What was measured:
# Experiment in all cases: biochemical
# Design in all cases: scanMAX competition binding; kinase recovered on immobilized ligand quantified by qPCR, per cent of control
# Settings in all cases: read-out: APA (POC)
# CSNK2A2 = CSNK2A2 (Homo sapiens, UniProt P19784)
# Protocol: (§1) The binding affinities of APA and NAPA were evaluated in the scanMAX^sm Kinase Assay Panel (DiscoverX) at a final concentration of 10 µM. The compounds were tested for steric or allosteric binding to kinases in solution. The kinase was captured from the solution through an immobilized kinase-specific ligand and the kinase recovery was quantified. The amount of recovered kinase in the presence or absence of APA or NAPA was measured by quantitative PCR compared with the kinase capture in absence of the compound. Any compound reducing the binding affinity of a kinase to the respective immobilized ligand was scored as a potential hit, and the binding affinity of the compound toward a kinase is interpreted as the difference between the kinase recovery in the absence and presence of the compound. The inhibitory binding constants (Kd) of APA and NAPA to AURKA were evaluated in a KdELECT Kinase Assay (DiscoverX). […] Data acquisition followed the same methodology as for the scanMAX^sm Kinase Assay Panel. 6 Supplementary Figure 4. Kinome inhibition profiles of APA and its NAT2 metabolite NAPA identifies preferential APA kinase targets and differential binding to AURKA a The human kinome was assessed for binding affinity to APA and NAPA at 10 µM concentration (468 kinases in the scanMAX Kinase Assay Panel, DiscoverX). The family stratification of kinases is shown as a cladogram. Circles visualize the binding affinity of NAPA and APA towards each kinase with a higher intensity of blue corresponding to a higher binding affinity. […] One single data point from one experiment at a concentration 18.5 µM of APA was excluded as an outlier. c Thermal shift assay for human recombinant AURKA in the presence of APA and the selective inhibitor S1451. Melting temperatures were obtained by calculating the first derivative of the tryptophan fluorescence ratio at 350 nm and 330 nm and are shown for AURKA in the presence of S1451 (blue) and APA (yellow). Structural similarities between APA and kinase inhibitors[27] prompted investigation of protein kinases as mediators of APA toxicity. […] To enrich for kinase interactions that could explain the preferential killing of slow NAT2 cells, we compared the binding affinity of each kinase with APA and NAPA, selected 44 targets with preferential binding to APA and excluded kinases non-essential for cell survival and those not expressed in CRC cells (Supplementary Fig. 4A, Supplementary Table 4). […] The growth inhibition of RKO and DLD-1 following siRNA-mediated AURKA knockdown (Figs. 3c, d) reflected the relative efficiency of protein downregulation (Supplementary Fig. 5C, D). […] (Supplementary Fig. 4C). AURKA regulates cell cycle progression through association with other centrosome and spindle-associated proteins. Its activation requires auto-phosphorylation at Thr288 and ensures spindle pole integrity, centrosome duplication as well as adequate chromosomal alignment and segregation, while its inhibition leads to multipolar spindles with acentrosomal poles[28],[31]. […] S1451 reduced the fraction of pAURKA levels by >90% regardless of NAT2 expression (Fig. 3f and Su
# KDR = KDR (Homo sapiens, UniProt P35968)
# Chain of KDR (P35968 whole entry): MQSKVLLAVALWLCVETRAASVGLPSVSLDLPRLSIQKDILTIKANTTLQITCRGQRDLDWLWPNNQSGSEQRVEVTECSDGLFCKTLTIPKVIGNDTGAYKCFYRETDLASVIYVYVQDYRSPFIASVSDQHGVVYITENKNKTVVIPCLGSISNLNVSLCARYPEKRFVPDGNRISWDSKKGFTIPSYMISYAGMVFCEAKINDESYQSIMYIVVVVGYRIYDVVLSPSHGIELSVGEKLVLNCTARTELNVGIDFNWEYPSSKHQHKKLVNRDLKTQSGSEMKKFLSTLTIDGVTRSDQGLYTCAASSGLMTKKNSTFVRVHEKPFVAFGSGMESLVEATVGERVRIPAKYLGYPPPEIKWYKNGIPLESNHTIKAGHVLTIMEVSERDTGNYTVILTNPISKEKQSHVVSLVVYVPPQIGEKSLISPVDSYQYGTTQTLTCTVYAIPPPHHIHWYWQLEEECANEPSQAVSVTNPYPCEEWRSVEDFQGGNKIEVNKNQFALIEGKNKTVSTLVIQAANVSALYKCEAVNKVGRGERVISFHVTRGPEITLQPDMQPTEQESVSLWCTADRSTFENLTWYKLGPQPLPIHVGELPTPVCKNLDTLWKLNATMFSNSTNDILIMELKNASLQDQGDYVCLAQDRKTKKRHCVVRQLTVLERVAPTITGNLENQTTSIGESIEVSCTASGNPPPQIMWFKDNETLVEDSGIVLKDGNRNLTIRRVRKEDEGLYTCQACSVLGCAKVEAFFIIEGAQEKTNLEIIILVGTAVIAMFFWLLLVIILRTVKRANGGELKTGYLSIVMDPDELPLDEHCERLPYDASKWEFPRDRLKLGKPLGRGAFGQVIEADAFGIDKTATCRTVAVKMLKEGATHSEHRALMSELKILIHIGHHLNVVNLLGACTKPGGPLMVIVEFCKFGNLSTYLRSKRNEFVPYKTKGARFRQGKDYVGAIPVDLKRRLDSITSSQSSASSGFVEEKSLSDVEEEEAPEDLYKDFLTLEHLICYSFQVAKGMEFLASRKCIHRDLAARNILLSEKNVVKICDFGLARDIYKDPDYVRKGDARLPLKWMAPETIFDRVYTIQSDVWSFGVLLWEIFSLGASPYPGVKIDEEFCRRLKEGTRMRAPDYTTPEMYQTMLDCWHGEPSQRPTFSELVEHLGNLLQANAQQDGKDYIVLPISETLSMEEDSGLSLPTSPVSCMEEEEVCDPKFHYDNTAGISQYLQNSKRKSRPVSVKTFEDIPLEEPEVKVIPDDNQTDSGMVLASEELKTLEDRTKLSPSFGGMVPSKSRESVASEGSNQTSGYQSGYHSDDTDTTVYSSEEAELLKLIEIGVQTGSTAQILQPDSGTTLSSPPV
# Protocol: as §1
# AURKA = AURKA (Homo sapiens, UniProt O14965)
# Chain of AURKA (O14965 whole entry): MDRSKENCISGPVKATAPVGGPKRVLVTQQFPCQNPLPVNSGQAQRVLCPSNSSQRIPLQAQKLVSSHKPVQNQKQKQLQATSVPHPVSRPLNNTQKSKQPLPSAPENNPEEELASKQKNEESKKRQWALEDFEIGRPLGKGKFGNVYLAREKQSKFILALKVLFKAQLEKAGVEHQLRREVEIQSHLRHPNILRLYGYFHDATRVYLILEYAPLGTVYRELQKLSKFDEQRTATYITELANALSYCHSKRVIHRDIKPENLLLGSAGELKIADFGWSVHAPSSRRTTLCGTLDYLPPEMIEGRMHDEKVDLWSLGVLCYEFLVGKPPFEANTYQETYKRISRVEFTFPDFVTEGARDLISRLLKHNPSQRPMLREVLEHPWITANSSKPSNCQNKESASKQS
# Protocol: as §1
# PDGFRA = PDGFRA (Homo sapiens, UniProt P16234)
# Protocol: as §1
# CAMK2A = CAMK2A (Homo sapiens, UniProt Q9UQM7)
# Protocol: as §1
# DYRK2 = DYRK2 (Homo sapiens, UniProt Q92630)
# Protocol: as §1
# RPS6KA6_Dom1 = molecular target: T1, RPS6KA6_Dom1 (Homo sapiens, UniProt Q9UK32)
# T1 construct: gene RPS6KA6; Kin.Dom.1 N-terminal
# T1 sequence (Q9UK32 whole entry): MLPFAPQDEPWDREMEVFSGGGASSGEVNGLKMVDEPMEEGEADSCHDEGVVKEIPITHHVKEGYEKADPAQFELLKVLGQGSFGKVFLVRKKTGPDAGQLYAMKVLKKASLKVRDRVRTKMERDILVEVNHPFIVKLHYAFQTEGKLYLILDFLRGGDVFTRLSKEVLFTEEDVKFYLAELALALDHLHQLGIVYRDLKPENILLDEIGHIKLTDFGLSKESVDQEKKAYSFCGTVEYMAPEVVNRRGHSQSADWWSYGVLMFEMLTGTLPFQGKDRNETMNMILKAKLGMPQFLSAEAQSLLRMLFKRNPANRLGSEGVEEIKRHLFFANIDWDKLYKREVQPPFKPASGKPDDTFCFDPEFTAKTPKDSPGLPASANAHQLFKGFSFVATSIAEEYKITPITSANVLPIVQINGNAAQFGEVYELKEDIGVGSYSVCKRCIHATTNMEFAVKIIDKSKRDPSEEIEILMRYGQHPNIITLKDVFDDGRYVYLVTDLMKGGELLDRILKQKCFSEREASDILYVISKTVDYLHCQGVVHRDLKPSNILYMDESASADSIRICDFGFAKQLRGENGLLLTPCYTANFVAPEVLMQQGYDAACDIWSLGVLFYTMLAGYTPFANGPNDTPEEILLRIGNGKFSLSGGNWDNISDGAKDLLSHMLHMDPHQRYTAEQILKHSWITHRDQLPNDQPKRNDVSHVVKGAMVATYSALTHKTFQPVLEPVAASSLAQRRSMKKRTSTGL
# Protocol: as §1
# RET = RET (Homo sapiens, UniProt P07949)
# Protocol: as §1
# EIF2AK4 = EIF2AK4 (Homo sapiens, UniProt Q9P2K8)
# Protocol: as §1
# MKNK2 = MKNK2 (Homo sapiens, UniProt Q9HBH9)
# Protocol: as §1
# MINK1 = MINK1 (Homo sapiens, UniProt Q8N4C8)
# Chain of MINK1 (Q8N4C8 whole entry): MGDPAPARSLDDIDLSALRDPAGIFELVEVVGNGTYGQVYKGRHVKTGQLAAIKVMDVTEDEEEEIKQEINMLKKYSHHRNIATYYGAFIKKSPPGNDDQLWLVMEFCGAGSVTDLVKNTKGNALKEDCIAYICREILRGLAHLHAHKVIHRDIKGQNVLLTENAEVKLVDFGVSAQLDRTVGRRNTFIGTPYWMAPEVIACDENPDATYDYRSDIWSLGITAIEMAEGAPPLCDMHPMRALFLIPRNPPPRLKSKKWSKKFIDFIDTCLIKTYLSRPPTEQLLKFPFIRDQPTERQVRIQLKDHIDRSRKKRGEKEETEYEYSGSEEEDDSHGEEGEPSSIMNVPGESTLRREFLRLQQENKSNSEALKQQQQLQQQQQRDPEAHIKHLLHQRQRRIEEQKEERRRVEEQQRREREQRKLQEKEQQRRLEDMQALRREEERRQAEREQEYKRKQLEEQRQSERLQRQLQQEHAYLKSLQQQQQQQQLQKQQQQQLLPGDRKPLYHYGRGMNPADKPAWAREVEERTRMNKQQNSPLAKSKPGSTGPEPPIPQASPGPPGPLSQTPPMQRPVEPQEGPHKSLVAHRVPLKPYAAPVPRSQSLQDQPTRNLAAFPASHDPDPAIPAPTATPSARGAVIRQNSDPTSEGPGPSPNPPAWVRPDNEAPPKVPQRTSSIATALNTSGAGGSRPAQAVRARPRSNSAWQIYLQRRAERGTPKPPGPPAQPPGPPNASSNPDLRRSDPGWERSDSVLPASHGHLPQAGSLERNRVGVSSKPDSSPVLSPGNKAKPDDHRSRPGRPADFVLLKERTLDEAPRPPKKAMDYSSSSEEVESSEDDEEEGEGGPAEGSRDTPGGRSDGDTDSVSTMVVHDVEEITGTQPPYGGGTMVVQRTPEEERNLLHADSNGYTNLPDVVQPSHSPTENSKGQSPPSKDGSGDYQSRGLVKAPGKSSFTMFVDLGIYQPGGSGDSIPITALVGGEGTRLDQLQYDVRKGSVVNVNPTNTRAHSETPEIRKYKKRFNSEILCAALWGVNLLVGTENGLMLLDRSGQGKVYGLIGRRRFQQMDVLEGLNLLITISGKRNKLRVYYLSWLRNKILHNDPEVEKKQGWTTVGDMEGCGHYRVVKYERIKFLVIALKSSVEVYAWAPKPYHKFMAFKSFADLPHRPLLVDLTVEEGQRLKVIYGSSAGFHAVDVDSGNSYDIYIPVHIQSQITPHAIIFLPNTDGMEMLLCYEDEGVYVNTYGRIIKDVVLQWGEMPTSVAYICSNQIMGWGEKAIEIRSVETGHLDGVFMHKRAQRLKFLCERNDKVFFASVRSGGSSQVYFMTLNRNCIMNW
# Protocol: as §1
# FLT4 = FLT4 (Homo sapiens, UniProt P35916)
# Protocol: as §1
# CSF1R = CSF1R (Homo sapiens, UniProt P07333)
# Protocol: as §1
# MAP3K11 = MAP3K11 (Homo sapiens, UniProt Q16584)
# Chain of MAP3K11 (Q16584 whole entry): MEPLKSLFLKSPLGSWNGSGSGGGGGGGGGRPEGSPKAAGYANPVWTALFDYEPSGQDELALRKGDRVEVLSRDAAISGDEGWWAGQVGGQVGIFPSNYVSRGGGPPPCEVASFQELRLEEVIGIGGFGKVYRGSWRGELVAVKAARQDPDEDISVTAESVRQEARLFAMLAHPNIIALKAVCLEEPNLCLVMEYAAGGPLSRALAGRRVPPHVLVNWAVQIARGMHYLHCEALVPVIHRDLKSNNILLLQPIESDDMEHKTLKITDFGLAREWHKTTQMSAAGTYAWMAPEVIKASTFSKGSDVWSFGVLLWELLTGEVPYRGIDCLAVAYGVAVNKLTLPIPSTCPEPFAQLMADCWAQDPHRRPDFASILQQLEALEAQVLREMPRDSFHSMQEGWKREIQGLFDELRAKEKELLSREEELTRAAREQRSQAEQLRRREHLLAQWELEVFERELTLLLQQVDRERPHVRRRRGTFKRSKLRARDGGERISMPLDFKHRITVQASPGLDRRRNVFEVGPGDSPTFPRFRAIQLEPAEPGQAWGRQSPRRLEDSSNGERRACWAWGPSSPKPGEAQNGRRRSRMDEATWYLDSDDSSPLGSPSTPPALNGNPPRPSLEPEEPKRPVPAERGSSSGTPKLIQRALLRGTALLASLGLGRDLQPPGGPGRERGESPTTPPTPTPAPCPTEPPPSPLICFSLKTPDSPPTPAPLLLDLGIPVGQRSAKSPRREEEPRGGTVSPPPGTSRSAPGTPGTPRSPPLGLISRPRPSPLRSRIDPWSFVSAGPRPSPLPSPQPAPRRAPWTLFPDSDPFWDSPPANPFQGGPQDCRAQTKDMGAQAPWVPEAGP
# Protocol: as §1
# MAST1 = MAST1 (Homo sapiens, UniProt Q9Y2H9)
# Protocol: as §1
# Chain of CSNK2A2 (P19784 whole entry): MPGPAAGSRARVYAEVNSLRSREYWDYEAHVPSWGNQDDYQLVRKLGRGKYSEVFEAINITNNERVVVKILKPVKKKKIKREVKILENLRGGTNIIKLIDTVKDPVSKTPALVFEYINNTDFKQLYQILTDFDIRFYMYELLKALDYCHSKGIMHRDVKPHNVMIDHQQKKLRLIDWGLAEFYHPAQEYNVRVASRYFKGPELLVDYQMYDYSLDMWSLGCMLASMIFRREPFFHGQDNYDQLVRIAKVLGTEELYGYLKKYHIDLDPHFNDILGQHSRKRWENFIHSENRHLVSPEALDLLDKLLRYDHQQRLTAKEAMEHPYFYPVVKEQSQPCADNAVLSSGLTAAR
structure (smiles),measurement,setting,value
"COc1cc(Nc2cncc(-c3ccc(N)cc3)n2)cc(OC)c1OC [APA, 6-(4-aminophenyl)-N-(3,4,5-trimethoxyphenyl)pyrazin-2-amine]",remaining binding at 10 µM,CSNK2A2,29%
same,remaining binding at 10 µM,KDR,7.1%
same,remaining binding at 10 µM,AURKA,53%
same,remaining binding at 10 µM,PDGFRA,3.4%
same,remaining binding at 10 µM,CAMK2A,59%
same,remaining binding at 10 µM,DYRK2,63%
same,remaining binding at 10 µM,RPS6KA6_Dom1,58%
same,remaining binding at 10 µM,RET,24%
same,remaining binding at 10 µM,EIF2AK4,38%
same,remaining binding at 10 µM,MKNK2,26%
same,remaining binding at 10 µM,MINK1,24%
same,remaining binding at 10 µM,FLT4,35%
same,remaining binding at 10 µM,CSF1R,3.9%
same,remaining binding at 10 µM,MAP3K11,22%
same,remaining binding at 10 µM,MAST1,46%
